This note sets out measurements from the supplement of paper PMC8837787.

SMILES strings stand for the structures. Bounds are passed on as bounds.

This assay relates to Saccharomyces cerevisiae ABC16-Green Monster. The note with it: 18 h; 30 °C; YPD. How it is done:
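Growth inhibition of the drug-sensitive S. cerevisiae ABC16-Green Monster strain (16 ABC transporters deleted) in YPD at 30 °C for 18 h. […] dilution series […] in biological replicates; IC50 from OD600 (18 h minus 0 h) fitted by variable-slope nonlinear regression in GraphPad Prism. Library compounds were first screened at 150 µM, and only those with at least 70% inhibition went to dose-response; the rest are marked inactive.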

Regarding `COc1cc(C2c3cc4c(cc3C(OC3OC5COC(C)OC5C(O)C3O)C3COC(=O)C23)OCO4)cc(OC)c1O` (stereo unspecified) [Etoposide], the IC50 growth inhibition turned out to be 23.6 µM.
The figure for `Cn1ncc2c(N3CCOCC3)nc(NCCc3c[nH]c4ccccc34)nc21` is 69.3 µM.
In turn, `c1csc(-c2cnc3sc(NCC4CCOCC4)nn23)c1` showed an IC50 growth inhibition of 2.98 µM.
The figure for `CN(C(=O)c1cc2c(-c3cncnc3)cccc2[nH]1)c1ccccc1` is 26.3 µM; for `C=CCC1C=C(C)CC(C)CC(OC)C2OC(O)(C(=O)C(=O)N3CCCCC3C(=O)OC(C(C)=CC3CCC(O)C(OC)C3)C(C)C(O)CC1=O)C(C)CC2OC` (stereo unspecified) [Tacrolimus/FK-506] it is over 75 µM.
Compound `O=C(c1ccco1)N(CCCn1ccnc1)c1nc2c(Cl)cccc2s1` yielded an IC50 growth inhibition of 40.8 µM.
As for `CC1CCC2C(C)C(=O)OC3OC4(C)CCC1C32OO4` (stereo unspecified) [Artemisinin], the figure is 34.3 µM.
`CC(C)Sc1cccc(C(=O)Nc2nnc(-c3ccnn3C(C)C)o2)c1` [CBR113] registered an IC50 growth inhibition of 2.48 µM.
Regarding `CC(CN1c2ccccc2Sc2ccccc21)N(C)C` (stereo unspecified) [Promethazine], the IC50 growth inhibition is 98.9 µM.
The figure for `CN(C)c1ccc(C(O)(c2ccc(N(C)C)cc2)c2ccc(N(C)C)cc2)cc1` is 0.317 µM; for `CC(=O)OCC1OC([S-])C(OC(C)=O)C(OC(C)=O)C1OC(C)=O.CCP(CC)CC` (stereo unspecified) [Auranofin] it is 27.4 µM; for `Cc1cc(C)n(-c2ccc(CN3c4ccc(S(N)(=O)=O)cc4CC3C)cc2)n1` (stereo unspecified) it is 129 µM.
As for `COc1cc(N2CCC(N3CCN(C)CC3)CC2)ccc1Nc1ncc(Cl)c(Nc2ccccc2P(C)(C)=O)n1` [Brigatinib], the figure is over 75 µM; as for `Oc1ccc(C(=C(Cl)Cl)c2ccc(O)cc2)cc1`, 6.96 µM; as for `CCCCCCC(O)(c1ccc(F)cc1)C(CN1CCOCC1)c1ccccc1` (stereo unspecified), 17.3 µM.
For the compound `O=C(CCCCCCC(=O)Nc1ccccc1)NO` [Vorinostat], the IC50 growth inhibition is over 75 µM.
As for `CCC(C)C1OC2(CCC1C)CC1CC(CC=C(C)C(OC3CC(OC)C(OC4CC(OC)C(O)C(C)O4)C(C)O3)C(C)C=CC=C3COC4C(O)C(C)=CC(C(=O)O1)C34O)O2` (stereo unspecified) [Ivermectin], the figure is over 75 µM; as for `Cc1cc(C(=O)NCCSc2ccccc2)c(C)n1C(C)C`, 60.5 µM; as for `CCc1c(C(=O)Nc2nc(C)cs2)cnn1-c1cccc(Cl)c1`, 30.5 µM.
The figure for `CC(=O)NCC1CN(c2ccc(-c3ccc(CNCc4cn[nH]n4)cc3)c(F)c2)C(=O)O1` (stereo unspecified) [Radezolid] is over 75 µM; for `CCCCCCCCCCCCCCCCCCOCC(COP(=O)([O-])OCC[N+](C)(C)C)OC` (stereo unspecified) [Edelfosine] it is 29.1 µM; for `CC1CC(C)C(=O)C(C(O)CC2CC(=O)NC(=O)C2)C1` (stereo unspecified) [Cycloheximide] it is 0.0378 µM.
The figure for `Cc1noc(C)c1C(=O)N1CCCC(c2[nH]c3c(C)cccc3c2-c2ccncc2)C1` (stereo unspecified) is 20.8 µM.
Compound `COc1ccc(Oc2ccc([C@@H](C)N(C)c3ncc4c(N)nc(N)nc4n3)cc2)cc1` showed an IC50 growth inhibition of 30.5 µM.
The figure for `FC(F)(F)c1cccc(Nc2nc3ccccc3nc2Nc2cccc(C(F)(F)F)c2)c1` is 1.6 µM; for `O=C(O)c1ccc2c(c1)nc(Nc1cccc(Cl)c1)c1ccncc12` [Silmitasertib] it is over 75 µM.
As to `O=C1N(Cc2cc3ccccc3s2)CC2CN(Cc3ccccc3)CCN12` (stereo unspecified), the IC50 growth inhibition turned out to be 30.2 µM.
On to `O=C(Nc1ccc(Cl)c(Cl)c1)Nc1ccc(Cl)c(Cl)c1`, for which the IC50 growth inhibition was 0.32 µM.
`CCS(=O)(=O)N1CCN(c2ccc(Nc3ncc(C(N)=O)c(NC4CC4)n3)cc2)CC1` [Cerdulatinib] had an IC50 growth inhibition of 8.06 µM.
As for `N#Cc1c(N2CCCC2)nn(C(=O)Nc2ccc(Cl)c(Cl)c2)c1N`, the figure is 4.53 µM; as for `CN1CCN(c2ccccc2NC(=O)c2cccc(Oc3ccccc3)c2)CC1`, 98.9 µM.
The figure for `CCCCCC(=O)N[C@H](C(=O)N[C@@H](CCS(C)(=O)=O)C(=O)N[C@@H](CC(C)C)C(=O)[C@@]1(C)CO1)C(C)C` [Carmaphycin B] is 24.8 µM.
Consider `Cc1cc(NC(=O)C(C)C)n(-c2nc(C)c(C)c(=O)[nH]2)n1`, for which the IC50 growth inhibition was determined as 3.87 µM.
The figure for `COc1ccc2sc(N(Cc3cccnc3)C(=O)c3ccc(C#N)cc3)nc2c1` is 3.85 µM.
Consider `CN(C)CCC=C1c2ccccc2CCc2ccccc21` [Amitriptyline], for which the IC50 growth inhibition amounted to 56.8 µM.
As for `CCC1(O)CC2CN(CCc3c([nH]c4ccccc34)C(C(=O)OC)(c3cc4c(cc3OC)N(C)C3C(O)(C(=O)OC)C(OC(C)=O)C5(CC)C=CCN6CCC43C65)C2)C1` (stereo unspecified) [Vinblastine], the figure is over 75 µM.
As for `CN(CC=CC#CC(C)(C)C)Cc1cccc2ccccc12.Cl` [Terbinafine], the figure is 76.9 µM; as for `C[C@H]1Cc2c([nH]c3cc(Cl)c(F)cc23)[C@@]2(N1)C(=O)Nc1ccc(Cl)cc12` [KAE609], 7.65 µM; as for `CNC1CCC(c2ccc(Cl)c(Cl)c2)c2ccccc21.Cl` (stereo unspecified) [Sertraline], 13.4 µM.
As for `COC(=O)Nc1nc2cc(C(=O)c3ccccc3)ccc2[nH]1`, the figure is 58.4 µM; as for `CC(C)(C)C1CCc2[nH]c3ccccc3c(=O)c2C1` (stereo unspecified) [GNF-Pf-3815], 60.3 µM.
Compound `Cc1nc(-c2ccccn2)nc(N2CCC(Cc3ccccc3)C2)c1Cl` (stereo unspecified) displayed an IC50 growth inhibition of 21 µM.
Regarding `Clc1ccccc1-c1nc([P+](c2ccccc2)(c2ccccc2)c2ccccc2)c(N2CCOCC2)o1` [GNF-PF-2863], the IC50 growth inhibition came to 8.55 µM.
As for `COc1cccc2c1C(=O)c1c(O)c3c(c(O)c1C2=O)CC(O)(C(=O)CO)CC3OC1CC(N)C(O)C(C)O1` (stereo unspecified) [Doxorubicin], the figure is 11.2 µM.
In the case of `OCCN1CCN(CCCN2c3ccccc3Sc3ccc(C(F)(F)F)cc32)CC1` [Fluphenazine], the IC50 growth inhibition worked out at 30.1 µM.
Consider `CNCCC(Oc1ccc(C(F)(F)F)cc1)c1ccccc1` (stereo unspecified) [Fluoxetin], for which the IC50 growth inhibition turned out to be 59.5 µM.
The figure for `COC(=O)C1=C(C)NC(C)=C(C(=O)OC(C)C)C1c1cccc2nonc12` (stereo unspecified) is 65.4 µM; for `Cc1c(C)n(CCCN(C)C)c2ncn3nc(-c4ccc(N(C)C)cc4)nc3c12` it is 42.3 µM; for `COc1ccc(/C=C/c2ccc3c(Cl)cc(Cl)c(O)c3n2)cc1` it is 22.3 µM.
`Cc1cc(Cl)ccc1OCc1nnc(-c2ccccn2)[nH]1`: the IC50 growth inhibition was 20.7 µM.
In the case of `c1ccc(-c2cn3nc(NCc4ccccc4CN4CCOCC4)sc3n2)cc1`, the IC50 growth inhibition was determined as 106 µM.
The figure for `CC(C)(C)c1ccc(NC(=O)c2ccc[nH]c2=S)cc1` is 25.4 µM.
The figure for `Nc1nc(F)nc2c1ncn2C1OC(CO)C(O)C1O` (stereo unspecified) [Fludarabine] is over 75 µM; for `NCCN(C(=O)c1ccc(Cl)cc1Cl)c1ccc(OCc2ccc(Cl)cc2)cc1` it is 10.5 µM.
As for `NC(=O)NO` [Hydroxyurea], the figure is over 75 µM; as for `CSc1ccccc1C(=O)Nc1nc(-c2ccccn2)cs1`, 10.8 µM.
